Measurements: US10759814B2, “Pharmaceutical compositions containing substituted polycyclic pyridone derivatives and prodrug thereof” (priority 2016, dated 2020)
Read-outs that look alike come from different tables or passages of the source.

Key:
[1] = Metabolism stability test; assay type: in vitro ADME, human; conditions: 2 μmol/L of test compound; 37° C., 30 minutes
Experimental: Test Example 5: Metabolism Stability Test
A reaction was performed (oxidative reaction) at 37° C. for 0 minute or 30 minutes in the presence of 1 mmol/L NADPH in 0.2 mL of a buffer (50 mmol/L Tris-HCl pH 7.4, 150 mmol/L potassium chloride, 10 mmol/L magnesium chloride) containing 0.5 mg protein/mL of human liver microsomes. After the reaction, 50 μL of the reaction solution was added to 100 μL of a methanol/acetonitrile=1/1 (v/v), mixed and centrifuged at 3000 rpm for 15 minutes. The compound used in the present invention in the supernatant was quantified by LC/MS/MS or Solid Phase Extraction (SPE)/MS, and a remaining amount of the compound used in the present invention after the reaction was calculated, letting a compound amount at 0 minute reaction time to be 100%. Hydrolysis reaction was performed in the absence of NADPH and glucuronidation reaction was in the presence of 5 mM UDP-glucuronic acid in place of NADPH, followed by similar operations.

[2] = test system: red blood cells; assay: Light hemolysis test; assay type: cell-based, sheep; conditions: UV-irradiation 290 to 400 nm; 0.0008 to 0.1 w/v %
Experimental: Test Example 12: Light Hemolysis Test
The compound used in the present invention was dissolved at target concentrations and was mixed with a 2.5 v/v % suspension of red blood cells prepared from a defibrinated blood of sheep on a microplate at concentrations of 0.0008 to 0.1 w/v %. The mixtures were exposed to […] of UV-irradiation within a range of wavelength 290 to 400 nm, UVA and UVB using ultra violet fluorescent lamps, GL20SE and FL20S-BLB lamps manufactured by Sankyo Denki Co., Ltd. and Panasonic Corporation, respectively. After the completion of the irradiation, the mixtures were centrifuged, and a supernatant of the mixture was collected and was located on a microplate. The phototoxicity was assessed by measuring an absorbance at wavelength of 540 nm and 630 nm in the supernatant. The absorbance data at wavelength of 540 nm and 630 nm were used as indicators of biomembrane damage (photohemolysis %) and hyperoxidation of lipid membrane (methemoglobin formation), respectively. The criteria of phototoxicity was as follows; It was judged to be non-phototoxic (−) when the photohemolysis %<10 and the maximal change in the absorbance at 630 nm (ΔOD)<0.05 were observed. It was judged to be […] when the photohemolysis was more than 10% and the maximal change in the absorbance at 630 nm (ΔOD) was more than 0.05.

[3] = test system: influenza virus; assay type: in vivo, human; conditions: 20 to <65 years old
[4] = assay type: in vivo, human; conditions: Compound II-6 single 40 or 80 mg; Oseltamivir 75 mg twice a day for 5 days
Text: (4) Incidence of side effects
(4) Incidence of Side Effects
The number of side-effect episodes and the number of patients with side effect were counted for each administration group.

O=C1c2c(O)c(=O)ccn2N([C@@H]2c3ccccc3SCc3c2ccc(F)c3F)[C@@H]2COCCN12 [III-2]
remaining rate after reaction with human liver microsomes (printed: % inhibition) [1]: 90.1%
phototoxicity [2]: (−) (It was judged to be non-phototoxic (−) when the photohemolysis %<10 and the maximal change in the absorbance at 630 nm (ΔOD)<0.05 were observed)

CCOC(=O)C1=C[C@@H](OC(CC)CC)[C@H](NC(C)=O)[C@@H](N)C1 [Oseltamivir, reference compound]
Amount of change in virus titer from baseline, mean ([3]; Day 2 (24 hours later)): −2.51 log10 [TCID50/mL]
Proportion of patients having a positive influenza virus titer ([3]; Day 2 (24 hours later)): 91.0%
Amount of change in virus titer from baseline, mean ([3]; Day 3 (48 hours later)): −4.20 log10 [TCID50/mL]
Proportion of patients having a positive influenza virus titer ([3]; Day 3 (48 hours later)): 57.3%
Amount of change in virus titer from baseline, mean ([3]; Day 4 (72 hours later)): −4.63 log10 [TCID50/mL]
Proportion of patients having a positive influenza virus titer ([3]; Day 4 (72 hours later)): 27.6%
Amount of change in virus titer from baseline, mean ([3]; Day 5 (96 hours later)): −4.98 log10 [TCID50/mL]
Proportion of patients having a positive influenza virus titer ([3]; Day 5 (96 hours later)): 20.9%
Amount of change in virus titer from baseline, mean ([3]; Day 6 (120 hours later)): −4.85 log10 [TCID50/mL]
Proportion of patients having a positive influenza virus titer ([3]; Day 6 (120 hours later)): 9.0%
Amount of change in virus titer from baseline, mean ([3]; Day 9 (192 hours later)): −5.22 log10 [TCID50/mL]
Proportion of patients having a positive influenza virus titer ([3]; Day 9 (192 hours later)): 3.2%
Incidence of adverse events the causal relationship of which cannot be denied (patients) [4]: 8.4%
